Experimental data from patent US20210379040A1, “COMBINATION TREATMENT OF LIVER DISORDERS” (Terns Pharmaceuticals, Inc., priority 2020, published 2021).
Where two headings read alike, the source gives them in different places. Blank lines part the entries; values can stand above or below the compound they belong to.

Key:
rat hepatocytes = experiment: In vitro metabolic stability in cryopreserved hepatocytes (rat); assay type: in vitro ADME; settings: Sprague-Dawley Rat
Description: (§1) In vitro half-life values were determined and scaled to predict hepatic clearance (CLpred) and hepatic extraction using the well-stirred liver model with no correction for plasma protein as described in Obach et al., The Prediction of Human Pharmacokinetic Parameters from Preclinical and In Vitro Metabolism Data, J. of Pharmacology and Experimental Therapeutics, vol. 283, no. 1, pp. 46-58 (1997).

monkey hepatocytes = experiment: In vitro metabolic stability in cryopreserved hepatocytes (monkey); assay type: in vitro ADME; settings: Cynomolgus Monkey
Description: as §1

[1] = Tissue distribution after 2 mg/kg intravenous infusion; assay type: in vivo; settings: SD rats, with 100 μM rifampin
Description: The tested compounds were administered to SD rats (n=3 per compound) by way of 30 minute intravenous infusion at 2 mg/kg. Blood, liver, kidney, and lung tissue samples were collected from the rats to determine a tissue/plasma ratio.

[2] = Tissue distribution of radiolabeled (14C) compound, oral 5 mg/kg; assay type: in vivo; settings: Long-Evans rats, oral 5 mg/kg (100 μCi/kg), up to 168 hours
Description: Plasma, liver, small intestine, cecum, kidney, lung, heart and skin tissue samples were collected up to 168 hours, and the amount of radioactive material at various time points was measured.

[3] = PK/PD profile, single oral dose; assay type: in vivo; settings: cynomolgus monkey, plasma, cynomolgus monkeys; for AUC(0-t): read-out: AUC0-24
Description: Pharmacokinetics data is presented in Table 3, and were determined by non-compartmental analysis.

[4] = Clinical study, Second Study (7 days daily oral dosing); settings: for AUC: human, in vivo, po
[5] = system: FXR-regulated gene expression in liver and ileum; experiment: Mechanism of action: tissue RNA by RT-qPCR and RNAseq after single oral dose; settings: C57BL/6 mice, single oral 10 mg/kg, 6 hours
MAO-A = target: T1, MAO-A (Homo sapiens, UniProt P21397); experiment: Biochemical activity, MAO-A
T1 sequence (P21397 1-527): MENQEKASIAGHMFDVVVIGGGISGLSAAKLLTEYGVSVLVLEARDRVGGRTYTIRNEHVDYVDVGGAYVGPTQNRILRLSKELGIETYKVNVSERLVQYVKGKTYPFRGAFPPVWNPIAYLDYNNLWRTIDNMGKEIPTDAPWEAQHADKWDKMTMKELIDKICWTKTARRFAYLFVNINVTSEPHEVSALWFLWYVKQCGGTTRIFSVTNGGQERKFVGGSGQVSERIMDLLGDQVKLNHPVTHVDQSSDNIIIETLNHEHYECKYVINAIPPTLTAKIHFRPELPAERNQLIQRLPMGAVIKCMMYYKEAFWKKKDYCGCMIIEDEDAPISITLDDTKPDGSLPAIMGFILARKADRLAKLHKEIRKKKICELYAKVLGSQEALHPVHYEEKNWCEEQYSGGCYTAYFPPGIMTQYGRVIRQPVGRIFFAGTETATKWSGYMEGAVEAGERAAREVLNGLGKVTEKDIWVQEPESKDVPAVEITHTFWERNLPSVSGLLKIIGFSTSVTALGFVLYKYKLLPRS

MAO-B = target: T2, MAO-B (Homo sapiens, UniProt P27338); experiment: Biochemical activity, MAO-B
T2 sequence (P27338 1-520): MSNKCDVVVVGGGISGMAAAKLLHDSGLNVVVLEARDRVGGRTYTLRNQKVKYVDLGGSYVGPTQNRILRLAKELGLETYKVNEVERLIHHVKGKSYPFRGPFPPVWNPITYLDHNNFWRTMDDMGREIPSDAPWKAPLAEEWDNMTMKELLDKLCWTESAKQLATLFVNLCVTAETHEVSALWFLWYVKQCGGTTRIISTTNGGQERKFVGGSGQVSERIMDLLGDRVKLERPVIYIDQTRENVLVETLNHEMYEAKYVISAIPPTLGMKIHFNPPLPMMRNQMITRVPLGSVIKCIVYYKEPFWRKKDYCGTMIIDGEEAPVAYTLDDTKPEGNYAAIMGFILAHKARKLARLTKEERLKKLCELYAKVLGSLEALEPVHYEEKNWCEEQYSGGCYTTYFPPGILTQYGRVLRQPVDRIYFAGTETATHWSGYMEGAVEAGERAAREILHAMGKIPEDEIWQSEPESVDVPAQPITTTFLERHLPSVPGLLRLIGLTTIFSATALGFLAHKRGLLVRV

Structure (SMILES): Cn1cc(C(=O)O)c2ccc(N3CCC(OCc4c(-c5c(Cl)cccc5Cl)noc4C4CC4)CC3)cc21 [Compound 1]
Hepatic Extraction (rat hepatocytes): 47.3 ± 0.78% | In vitro Metabolic CLpred (rat hepatocytes; well-stirred liver model): 26.2 ± 0.5 mL/min/kg | Hepatic Extraction (monkey hepatocytes): 64.4 ± 0.28% | In vitro Metabolic CLpred (monkey hepatocytes; well-stirred liver model): 28 ± 0.17 mL/min/kg | change in distribution to the liver on co-administration with rifampin [1]: does not result in a significant change | tissues with the most radioactive material [2]: Liver, small intestine, and cecum had the most radioactive material | Cmax ([3]; oral 0.3 mg/kg): 58.8 ± 30.2 ng/mL | Tmax ([3]; oral 0.3 mg/kg): 2.17 ± 1.47 h | AUC(0-t) ([3]; oral 0.3 mg/kg): 196 ± 64 ng·h/mL | Cmax ([3]; oral 1 mg/kg): 257 ± 124 ng/mL | Tmax ([3]; oral 1 mg/kg): 1.83 ± 1.17 h | AUC(0-t) ([3]; oral 1 mg/kg): 1000 ± 419 ng·h/mL | Cmax ([3]; oral 5 mg/kg): 709 ± 458 ng/mL | Tmax ([3]; oral 5 mg/kg): 2.25 ± 1.47 h | AUC(0-t) ([3]; oral 5 mg/kg): 2720 ± 1500 ng·h/mL | Pruritus ([4]; Compound 1 25 mg oral daily for 7 days): No | Pruritus ([4]; Compound 1 75 mg oral daily for 7 days): No | Pruritus ([4]; Compound 1 150 mg oral daily for 7 days): No | AUC ([4]; 25 mg): 645 ng·h/mL | AUC ([4]; 75 mg): 1480 ng·h/mL | AUC ([4]; 150 mg): 2160 ng·h/mL | Pruritus ([4]; subjects taking the highest doses): no pruritus was observed | induction of FXR-specific genes, liver versus ileum (RT-qPCR) [5]: preferentially induces FXR-specific genes in the liver

IC50 (MAO-A): > 50 µM | IC50 (MAO-B): > 50 µM
Structure (SMILES): COC1CCN(c2ncc(OC/C(=C/F)CN)cn2)CC1 [Compound 2]
